The values that follow come from US9777003B2, “Tricyclic heterocycles as bet protein inhibitors” (Incyte Corporation, priority 2013, dated 2017).

The target of one test is BRD4-BD1 (Homo sapiens (Human), UniProt O60885). In words: BRD4 AlphaScreen assay, BRD4-BD1. The format is binding. The conditions noted are these: biotin-labeled tetra-acetylated histone H4 peptide, 75 min, room temperature, read-out: BRD4 BD-1 enzyme IC50. The method in brief:
(§1)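 IC50 values from percent-control versus log inhibitor fits after bead-based proximity readout (streptavidin donor, GSH acceptor, 75 min dark). Reactions: 75 min RT, pH 7.4 HEPES, biotin-H4Ac4 peptide 50 nM, with BD1 at 3.8 nM (DMSO 1.25%) and BD2 at 20 nM (DMSO 0.83%).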
For orientation: In Alpha technology, singlet oxygen from a donor bead excites a nearby acceptor bead.

Another test addresses BRD4-BD2 (Homo sapiens (Human), UniProt O60885). In words: BRD4 AlphaScreen assay, BRD4-BD2. The class given is binding. As to conditions: biotin-labeled tetra-acetylated histone H4 peptide, 75 min, room temperature, read-out: BRD4 BD-2 enzyme IC50. In outline: as §1
Another test concerns KMS.12.BM cells. Description: KMS.12.BM cell viability assay (Cell Titer-GLO, ATP quantitation). The format is cell-based. As to conditions: 72 h; KMS.12.BM human myeloma cells, 3 days, concentration required for 50% cell death; read-out: KMS cellular IC50. How it is done: KMS.12.BM cell line (human myeloma) was purchased from JCRB (Osaka, Japan) and maintained in RPMI with 10% FBS culture medium. To measure the cytotoxic activity of the compounds through ATP quantitation, the KMS.12.BM cells are plated in the RPMI culture medium at 5000 cells/well/per 100 μL into a 96-well polystyrene clear black tissue culture plate (Greiner-bio-one through VWR, NJ), in the presence or absence of a concentration range of test compounds. After 3 days, […] Cell Titer-GLO Luminescent (Promega, Madison, Wis.) cell culture agent is added to each well for 10 minutes at room temperature to stabilize the luminescent signal. This determines the number of viable cells in culture based on quantitation of the ATP present, which signals the presence of metabolically active cells. Luminescence is measured with the Top Count 384 (Packard Bioscience through Perkin Elmer, Boston, Mass.). […] IC50 data for the Examples is presented in Table 4 as determined by Assay B1.
In general terms: Cellular ATP, detected with luciferase, serves as a proxy for viable cell number.

The structures appear in SMILES notation. Structures can show the parent of a compound that is named as a salt.

As usually defined, the IC50 is the concentration at which inhibition is half-maximal. Take `Cc1nnc2ccc3c(cc(-c4cc[nH]n4)n3Cc3cccc(CN4CCC4)c3)n12` [Example 182, 6-[3-(Azetidin-1-ylmethyl)benzyl]-1-methyl-7-(1H-pyrazol-3-yl)-6H-pyrrolo[2,3-e][1,2,4]triazolo[4,3-a]pyridine tris(trifluoroacetate) Salt]: the figures for the half-maximal inhibitory concentration (IC50) on BRD4-BD1, at BRD4-BD2 and in the test on KMS.12.BM cells were no more than 100 nM, no more than 100 nM and no more than 1000 nM, respectively.
